Experimental data: a compilation of properties of binary mixtures (doi:10.1021/acs.jced.9b01032)

Test: xn = mol fraction of the nth substance listed
Conditions: 93.2 kPa

With `NC=O` + CCCC[n+]1ccn(C)c1.F[P-](F)(F)(F)(F)F the speed of sound (288.15 K, x2 = 0) was 1619 m/s, the speed of sound (298.15 K, x2 = 0) was 1598 m/s and the speed of sound (303.15 K, x2 = 0) was 1588 m/s.
For `CCCC[n+]1ccn(C)c1.F[P-](F)(F)(F)(F)F` + NC=O, the speed of sound (288.15 K, x1 = 0.0502) was 1587 m/s, the speed of sound (288.15 K, x1 = 0.0995) was 1563 m/s and the speed of sound (288.15 K, x1 = 0.1488) was 1545 m/s. The speed of sound (288.15 K, x1 = 0.3001) was 1513 m/s, the speed of sound (288.15 K, x1 = 0.4985) was 1494 m/s and the speed of sound (288.15 K, x1 = 0.6976) was 1484 m/s. The speed of sound (288.15 K, x1 = 0.7792) was 1482 m/s, the speed of sound (288.15 K, x1 = 0.8902) was 1480 m/s and the speed of sound (288.15 K, x1 = 1) was 1478 m/s. It also gave a speed of sound (293.15 K, x1 = 0.0502) of 1576 m/s, a speed of sound (293.15 K, x1 = 0.0995) of 1552 m/s and a speed of sound (293.15 K, x1 = 0.1488) of 1534 m/s. It also gave a speed of sound (293.15 K, x1 = 0.3001) of 1501 m/s, a speed of sound (293.15 K, x1 = 0.3821) of 1491 m/s and a speed of sound (293.15 K, x1 = 0.4985) of 1482 m/s. For the same compound, the speed of sound (293.15 K, x1 = 0.595) was 1476 m/s, the speed of sound (293.15 K, x1 = 0.8902) was 1467 m/s and the speed of sound (293.15 K, x1 = 1) was 1464 m/s. The speed of sound (298.15 K, x1 = 0.0502) was 1565 m/s, the speed of sound (298.15 K, x1 = 0.1488) was 1522 m/s and the speed of sound (298.15 K, x1 = 0.2006) was 1508 m/s. For the same compound, the speed of sound (298.15 K, x1 = 0.3821) was 1479 m/s, the speed of sound (298.15 K, x1 = 0.4985) was 1470 m/s and the speed of sound (298.15 K, x1 = 0.595) was 1464 m/s. It also gave a speed of sound (298.15 K, x1 = 0.8902) of 1454 m/s, a speed of sound (303.15 K, x1 = 0.0502) of 1554 m/s and a speed of sound (303.15 K, x1 = 0.0995) of 1529 m/s. The speed of sound (303.15 K, x1 = 0.1488) was 1511 m/s, the speed of sound (303.15 K, x1 = 0.2006) was 1497 m/s and the speed of sound (303.15 K, x1 = 0.3001) was 1478 m/s. It also gave a speed of sound (303.15 K, x1 = 0.3821) of 1468 m/s, a speed of sound (303.15 K, x1 = 0.4985) of 1458 m/s and a speed of sound (303.15 K, x1 = 0.6976) of 1448 m/s. For the same compound, the speed of sound (303.15 K, x1 = 0.7792) was 1445 m/s, the speed of sound (303.15 K, x1 = 0.8902) was 1442 m/s and the speed of sound (303.15 K, x1 = 1) was 1439 m/s.
